Assay results taken from PMC7857147 (Biochemistry, 2019).

Assays:
[1] = biological target: PhDph2 (Pyrococcus horikoshii, UniProt O58832, R289A); experiment: HPLC of SAM cleavage to MTA; assay type: biochemical; settings: 60 uM SAM, 1 mM dithionite, pH 7.4, 65 °C, 10 min, no EF-2, anaerobic
[2] = biological target: the molecule itself; experiment: crystal structure

Chain of PhDph2 (O58832 whole entry R289A): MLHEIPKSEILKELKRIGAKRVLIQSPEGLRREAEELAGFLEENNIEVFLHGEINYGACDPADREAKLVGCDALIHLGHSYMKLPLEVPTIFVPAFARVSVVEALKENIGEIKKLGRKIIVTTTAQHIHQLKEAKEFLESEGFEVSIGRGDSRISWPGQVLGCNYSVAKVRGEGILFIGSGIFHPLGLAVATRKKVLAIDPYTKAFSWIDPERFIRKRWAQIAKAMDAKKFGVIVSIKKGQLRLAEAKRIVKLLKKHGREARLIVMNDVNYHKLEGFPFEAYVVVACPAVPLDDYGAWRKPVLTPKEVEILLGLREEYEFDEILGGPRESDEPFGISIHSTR

| Molecule | HPLC of SAM cleavage to MTA [1] | stoichiometry N [2] |
| --- | --- | --- |
| C[S+](CC[C@H](N)C(=O)O)C[C@H]1O[C@@H](n2cnc3c(N)ncnc32)[C@H](O)[C@@H]1O (some centres unmarked) [SAM] | the R289A mutant still had SAM cleavage activity |  |
| Methanobrevibacter smithii Dph2 (enzyme, UniProt A5UMY5 1-334, looked up) MSMYNMDLDKVIRKINKKGARTVGLQFPEGLKMQAVKIAKAIESQTPATVIISGDPCFGACDVSDYKMKGSVDLIVHYGHTPLPLKYEVPTLFIEAFSNIDVKKDLEKCLEKLEDYSKIALVTTTQHLHLLNEIKDYLEDNGKEVVLGSSKNTKKGQVLGCNFSSIKNLDAEVYLFIGSGNFHPLGIYLFTKSPVLALDPYNSEIRDISAFADRILRIRFARITKAREAEKWGIIVSSKEGQYRMKLAKEIKKILEDNKMEAYIIMADNINPDILLPYMELDAFVVSACPRIAIDDSQMYKKPLLTPQELEIVLNKRQWENYQLDEILFHERYK |  | 2 |
